Values quoted from earlier work in US12239707B2, “Photodynamic compositions and methods of use” (MT RESEARCH, LLC, priority 2018, dated 2025).

Details: taken orally; 95% remains intraluminal

## COC(=O)c1ccc2c(c1)NC(=O)/C2=C(\Nc1ccc(N(C)C(=O)CN2CCN(C)CC2)cc1)c1ccccc1 [nintedanib]
  fraction of nintedanib absorbed: 5%
